According to patent publication US9480649B2, “Lipid microparticle growth factor formulations” (Biopharm Gesellschaft zur biotechnologischen Entwicklung …, priority 2006, dated 2016):
Values after ≈ are worked out from the molar mass of the structure shown. Like-named read-outs stand apart in the source and are kept apart here. Blank lines part the entries; values can stand above or below the molecule they belong to. Peptide text beside a SMILES is read from it.

Key:
Solubility in water = format: physicochemical; conditions: based on our own results
[1] = for concentration prepared and stabilized using the lipid microparticle formulation: pH 7
Protocol: The tube was vortexed briefly. • c. The sample was placed in an ice-ethanol bath to maintain a temperature of approximately 4° C. • d. The tip of a probe sonicator was placed just above the bottom of the microcentrifuge tube. It was confirmed that the sonicator tip was not touching the sides or the bottom of the tube. • e. The sample was sonicated for 2 h at setting 10 on a 25% duty cycle with a period of 20 sec, producing an average power output of 22 watts. • f. The ice-ethanol bath was changed every 12 min to maintain temperature. • g. […] The solution was centrifuged for 4 min at 12,000 rpm to remove any metal particulates left by the probe tip. • i. 1 ml of the LMP was transferred to a clean 1.5 microcentrifuge tube.
Polyphenols are a group of chemical substances found in plants, characterized by the presence of more than one phenol group per molecule. The term comprises tannins, lignins and flavonoids. […] Myricetin (C15H10O8, MW 318.24) is a naturally occurring flavonoid found in many food sources known to have antioxidant and anti-inflammatory properties. […] Despite its therapeutic potential, myricetin has very limited water solubility. […] In an effort to increase the solubility of myricetin to enhance its therapeutic potential, myricetin was incorporated into lipid microparticles as follows: • j. 1 mg myricetin was added to the tube and vortexed to combine. […] The myricetin mixture was again placed over the ice-ethanol bath and fitted with the probe sonicator. • l. The mixture was sonicated on the same settings for 2.5 h, again replacing the ice-ethanol bath every 12-15 min. • m. […] The solution was centrifuged again for 5 min at 12,000 rpm to remove any metal particulates. • o. The solution was then titrated to pH 7 with 1 M NaOH.
In an effort to increase solubility, Vitamin E was incorporated into lipid LMP as follows: • j. 5 uL (4.65 mg) of vitamin E was added to the tube and vortexed to combine. • k. The Vitamin E mixture was placed over the ice-ethanol bath again and fitted with the probe sonicator. • l. The mixture was sonicated on the same settings for 2.5 h, again replacing the ice-ethanol bath every 12-15 min. • m. […] The solution was centrifuged again for 4 min at 12,000 rpm to remove any metal particulates. • o. The solution was then titrated to pH 7 with 1 M NaOH.
In an effort to increase the solubility of Leu-Leu-Leu to enhance it's therapeutic potential, Leu-Leu-Leu was incorporated into lipid microparticles as follows: • j. 8 mg Leu-Leu-Leu was added to the tube and vortexed to combine. […] The Leu-Leu-Leu mixture was again placed over the ice-ethanol bath and fitted with the probe sonicator. • l. The mixture was sonicated on the same settings for 2.5 h, again replacing the ice-ethanol bath every 12-15 min. • m. […] The solution was centrifuged again for 5 min at 12,000 rpm to remove any metal particulates. • o. The solution was then titrated to pH 7 with 1 M NaOH.

[2] = cited from earlier work
[3] = Solubility of GDF-5 in organic solvents (RP-HPLC of supernatant after centrifugation); format: physicochemical; conditions: dichlormethane, acetonitrile and DMSO solutions, centrifuged
Text: The inventors of the present application have proceeded with an extensive investigation in order to overcome the above described problems. […] Hydrophobic drugs are very often highly soluble in the volatile organic solvents. […] After adding GDF-5, dichlormethane, acetonitrile and DMSO solutions were centrifuged and the GDF-5 content of the supernatant was checked with RP-HPLC.
After adding GDF-5, solutions were centrifuged and the GDF-5 content of supernatant was checked with RP-HPLC.

[4] = cited from earlier work; remark: listed apart in the source
[5] = rat, in vivo
[6] = tested on: cultured midbrain neurons; conditions: cited from earlier work

solubility (Solubility in water): ~2500 µg/mL (≈ 6.99 mM)
increase of aqueous solubility at neutral pH using the LMP formulation [1]: over three-fold
concentration prepared and stabilized using the lipid microparticle formulation [1]: 8 mg/mL
Molecule: CC(C)C[C@H](NC(=O)[C@H](CC(C)C)NC(=O)[C@@H](N)CC(C)C)C(=O)O [Leu-Leu-Leu] (H-Leu-Leu-Leu-OH; N-terminus and C-terminus assumed)

Molecule: beta amyloid 1-42
solubility in aqueous solution ([2]; pH 3): very soluble
solubility in aqueous solution ([2]; pH 7): essentially insoluble
solubility in aqueous solution ([2]; physiological pH, e.g., pH 7.4): very low solubility

increase of aqueous solubility at neutral pH using the LMP formulation [1]: increased greatly
concentration prepared and stabilized using the lipid microparticle formulation [1]: 4.65 mg/mL
Molecule: Vitamin E

Molecule: O=c1c(O)c(-c2cc(O)c(O)c(O)c2)oc2cc(O)cc(O)c12 [myricetin]
solubility (Solubility in water): 65 µg/mL (≈ 0.204 mM)
increase of aqueous solubility at neutral pH using the LMP formulation [1]: 15.4 fold
concentration prepared and stabilized using the lipid microparticle formulation ([1]; 2.5 h): 1 mg/mL

Molecule: growth and differentiation factor-5 [GDF-5]
retrieval percentage of GDF-5 in supernatant [3]: below 15%
pH threshold for solubility ([4]; aqueous solutions of GDF-5): 4.3
pH above which the protein starts precipitating ([4]; aqueous solutions, profile shown in EP 1 462 126): above 4.25
blood exposure, intravenous relative to intranasal [5]: twice as great
midbrain concentration, intravenous relative to intranasal [5]: less than half
concentration at which neuroprotective effects have been demonstrated [6]: 1 nM
